Experiment [1] concerns U87-MG human brain carcinoma cell line. As to the kind of experiment: In vitro antitumor activity assay (SRB), U87-MG. The settings on record: Homo sapiens, U-87 MG, 72 h, Table 3. The experiment is classed as cell-based. The text has this: (§1) HeLa human cervical carcinoma cell line, A-549 human non-small cell lung carcinoma cell line, NCI-H2228 human lung carcinoma cell line, NCI-H460 human lung carcinoma cell line, MDA-MB-231 human breast carcinoma cell line, MCF-7 human breast carcinoma cell line, Bel-7402 human hepatic carcinoma cell line, Hep3B human hepatic carcinoma cell line, QGY-7703 human hepatic carcinoma cell line, MV-4-11 human leukemic cell line, DAUDI human leukemic cell line, Jurkat human leukemic cell line, A498 renal carcinoma cell line, LoVo human colon carcinoma cell line, HCT1116 human colon carcinoma cell line, A431 human skin carcinoma cell line, PANC-1 human pancreatic carcinoma cell line, U87-MG human brain carcinoma cell line, SH-SY5Y human brain carcinoma cell line, RPMI-8226 human bone carcinoma cell line, HT1080 human fibrosarcoma cell line, PC-3 human prostatic carcinoma cell line, AGS human gastric adenocarcinoma cell line, and BGC-823 human gastric adenocarcinoma cell line were purchased from the Cell Bank of the Chinese Academy of Sciences.
(§2) The positive control is bufalin (formulated according to the common method), its purity is 98% or more by HPLC-UV and its structure is identified by NMR. The compounds to be tested and the positive control were diluted with normal saline with a concentration gradient of 10^−4 M, 10^−5 M, 10^−6 M, 10^−7 M and 10^−8 M.
(§3) According to cell growth rate, tumor cells in the log phase of growth were seeded into 96-well culture plates at 100 μL per well, and allowed to attach for 24 hours, followed by addition of a test compound or positive control at 10 μL per well. For each concentration, the test was carried out in triplicate wells. […] Finally, Tris solution was added at 150 μL per well, and the absorbance (A) was measured at a wavelength of 515 nm using a microplate reader. The growth inhibition on tumor cell proliferation was calculated according to the following equation:
(§4) Growth Inhibition (%)=[(Absorbance of negative control−Absorbance of blank)−(Absorbance of sample−Absorbance of blank)]/(Absorbance of negative control−Absorbance of blank)×100% […]

Experiment [2] deals with Jurkat human leukemic cell line. The experiment is described as follows: In vitro antitumor activity assay (SRB), Jurkat. The class given is cell-based. The settings on record: Homo sapiens, 72 h, Table 3.
From the text: as §1, §2, §3, §4

The subject of experiment [3] is HCT-116 human-derived tumor cell line. The experiment is described as follows: In vitro antitumor activity assay (SRB), HCT-116. The experiment is classed as cell-based. The settings on record: Homo sapiens; HCT-116, 72 h, Table 3.
From the text: as §1, §2, §3, §4

In experiment [4] the test system is MV-4-11 human leukemic cell line. The experiment is described as follows: In vitro antitumor activity assay (SRB), MV-4-11. The experiment is classed as cell-based. The following applies: Homo sapiens, MV4-11; MV-4-11, 72 h, Table 3.
From the text: as §1, §2, §3, §4

Experiment [5] relates to AGS human gastric adenocarcinoma cell line. The experiment is described as follows: In vitro antitumor activity assay (SRB), AGS. The class given is cell-based. The following applies: Homo sapiens, 72 h, Table 3.
From the text: as §1, §2, §3, §4

Experiment [6] has as its system PC-3 human prostatic carcinoma cell line. As to the kind of experiment: In vitro antitumor activity assay (SRB), PC-3. The class given is cell-based. The following applies: Homo sapiens, Prostatic carcinoma cell; PC-3, 72 h, Table 3; read-out: IC50 (72 h), PC-3.
From the text: as §1, §2
(§5) According to cell growth rate, tumor cells in the log phase of growth were seeded into 96-well culture plates at 100 μL per well, and allowed to attach for 24 hours, followed by addition of a test compound or positive control at 10 μL per well. For each concentration, the test was carried out in triplicate wells. Solvent control wells with addition of normal saline into cell culture and a blank well containing only cell culture medium but without cells for zeroing were also included. The tumor cells were incubated for 72 hours at 37° C. under 5% CO2, and then the culture medium (RPMI-1640) was removed. The cells were fixed with 10% cool TCA by incubating for 1 h at 4° C., washed with distilled water for 5 times, and dried naturally in the air. A solution of SRB (Sigma) (4 mg/mL) in 1% glacial acetic acid was added at 100 μL per well, and the cells were stained for 15 minutes at room temperature, and the supernatant was discarded. The plates were washed for 5 times with 1% acetic acid, and dried in air. Finally, Tris solution was added at 150 μL per well, and the absorbance (A) was measured at a wavelength of 515 nm using a microplate reader. The growth inhibition on tumor cell proliferation was calculated according to the following equation:
(§6) Growth Inhibition (%)=[(Absorbance of negative control−Absorbance of blank)−(Absorbance of sample−Absorbance of blank)]/(Absorbance of negative control−Absorbance of blank)×100%
(§7) Drug concentration: 10 μM, 1 μM, 0.1 μM, 10 nM, 1 nM, 0.1 nM.
(§8) IC50 was fitted by GraphPad Prism 4.

The test system of experiment [7] is Hep3B human hepatic carcinoma cell line. The experiment is described as follows: In vitro antitumor activity assay (SRB), Hep3B. The experiment is classed as cell-based. The following applies: Homo sapiens, 72 h, Table 3.
From the text: as §1, §2, §3, §4

The test system of experiment [8] is HT1080 human fibrosarcoma cell line. As to the kind of experiment: In vitro antitumor activity assay (SRB), HT1080. The settings on record: Homo sapiens, HT-1080; HT1080, 72 h, Table 3. The class given is cell-based.
From the text: as §1, §2, §3, §4

The test system of experiment [9] is A498 renal carcinoma cell line. The experiment is described as follows: In vitro antitumor activity assay (SRB), A498. The class given is cell-based, human. The settings on record: Homo sapiens; A498, 72 h, Table 3.
From the text: as §1, §2, §3, §4

The subject of experiment [10] is NCI-H460 human lung carcinoma cell line. The experiment is described as follows: In vitro antitumor activity assay (SRB), NCI-H460. The settings on record: Homo sapiens; NCI-H460, 72 h, Table 3. The experiment is classed as cell-based.
From the text: as §1, §2, §3, §4

Experiment [11] deals with PANC-1 human pancreatic carcinoma cell line. The experiment is described as follows: In vitro antitumor activity assay (SRB), PANC-1. The class given is cell-based. The following applies: Homo sapiens; PANC-1, 72 h, Table 3.
From the text: as §1, §2, §3, §4

Experiment [12] deals with RPMI-8226 human bone carcinoma cell line. The experiment is described as follows: In vitro antitumor activity assay (SRB), RPMI8226. The class given is cell-based. The following applies: Homo sapiens, RPMI-8226; RPMI8226, 72 h, Table 3.
From the text: as §1, §2, §3, §4

In experiment [13] the test system is NCI-H2228 human lung carcinoma cell line. As to the kind of experiment: In vitro antitumor activity assay (SRB), NCI-H2228. The class given is cell-based. The following applies: Homo sapiens; NCI-H2228, 72 h, Table 3.
From the text: as §1, §2, §3, §4

Experiment [14] has as its system A-549 human non-small cell lung carcinoma cell line. The experiment is described as follows: In vitro antitumor activity assay (SRB), A549. The experiment is classed as cell-based. The settings on record: Homo sapiens; A549, 72 h, Table 3; read-out: IC50 (72 h), A549.
From the text: as §1, §2, §5, §6, §7, §8

For experiment [15], the system named is MCF-7 human breast carcinoma cell line. As to the kind of experiment: In vitro antitumor activity assay (SRB), MCF-7. The class given is cell-based. The following applies: Homo sapiens, MCF7; MCF-7, 72 h, Table 3; read-out: IC50 (72 h), MCF-7.
From the text: as §1, §2, §5, §6, §7, §8

For experiment [16], the system named is BGC-823 human gastric adenocarcinoma cell line. As to the kind of experiment: In vitro antitumor activity assay (SRB), BGC-823. The experiment is classed as cell-based. The following applies: Homo sapiens; BGC-823, 72 h, Table 3.
From the text: as §1, §2, §3, §4

The test system of experiment [17] is DAUDI human leukemic cell line. The experiment is described as follows: In vitro antitumor activity assay (SRB), Daudi. The class given is cell-based. The settings on record: Homo sapiens, 72 h, Table 3.
From the text: as §1, §2, §3, §4

Experiment [18] relates to HepG2 human-derived tumor cell line. The experiment is described as follows: In vitro antitumor activity assay (SRB), HepG2. The experiment is classed as cell-based. The following applies: Homo sapiens; HepG2, 72 h, Table 3.
Experiment [19] relates to QGY-7703 human hepatic carcinoma cell line. The experiment is described as follows: In vitro antitumor activity assay (SRB), QGY7703. The class given is cell-based. The following applies: Homo sapiens, QGY-7703; QGY7703, 72 h, Table 3.
From the text: as §1, §2, §3, §4

Experiment [20] concerns A431 human skin carcinoma cell line. The experiment is described as follows: In vitro antitumor activity assay (SRB), A431. The settings on record: Homo sapiens, A-431; A431, 72 h, Table 3. The experiment is classed as cell-based.
From the text: as §1, §2, §3, §4

Experiment [21] has as its system HeLa human cervical carcinoma cell line. The experiment is described as follows: In vitro antitumor activity assay (SRB), HeLa. The class given is cell-based. The following applies: read-out: IC50, inhibitory activity on cell proliferation of HeLa cell line.
From the text: as §1, §2, §5, §6, §7, §8

In experiment [22] the test system is MDA-MB-231 human breast carcinoma cell line. The experiment is described as follows: In vitro antitumor activity assay (SRB), MDA-MB-231. The experiment is classed as cell-based. The following applies: Homo sapiens; MDA-MB-231, 72 h, Table 3.
From the text: as §1, §2, §3, §4

For the compound `C[C@]12CC[C@H](OC(=O)NC3CCNCC3)C[C@H]1CC[C@@H]1[C@@H]2CC[C@]2(C)[C@@H](c3ccc(=O)oc3)CC[C@]12O` [II1E-01], the IC50 was 1.28 ± 0.36 nM in experiment [1]; 1.09 ± 0.26 nM in experiment [2]; 2.91 ± 0.09 nM in experiment [3]; 1.12 ± 0.29 nM in [4]; 9.62 ± 0.69 nM in experiment [5]; 0.41 ± 0.1 nM in experiment [6]. Further, the IC50 in experiment [7] is over 1000 nM; in [8], 2.9 ± 0.33 nM; in [9] it was 0.4 ± 0.03 nM; in experiment [10] it was 0.56 ± 0.05 nM; in experiment [11], 0.72 ± 0.19 nM; in experiment [12], 1.53 ± 0.1 nM. Besides, the IC50 was found to be 2.5 ± 0.34 nM in [13]; 0.77 ± 0.28 nM in experiment [14]; 9.97 ± 1.45 nM in experiment [15]; 0.81 ± 0.07 nM in experiment [16]; 2.86 ± 0.21 nM in experiment [17]; 0.51 ± 0.04 nM in experiment [18]. Further, the IC50 was found to be 1.11 ± 0.08 nM in [19], 2.62 ± 0.19 nM in experiment [20], 1.4 nM in [21] and 7.46 ± 0.33 nM in experiment [22].

Values taken from patent US20130005696A1, “BUFADIENOLIDE DERIVATIVES, PREPARING PROCESS THEREOF, COMPOSITION COMPRISING THE SAME AND THE USE THEREOF” (priority 2011, published 2013).
